These results are taken from US20240425529A1, “BORIC ACID DERIVATIVE” (SHOUYAO HOLDINGS (BEIJING) CO., LTD., priority 2021, published 2024).

In assay [1] the target is T1, LMP7 (Homo sapiens, UniProt P28062).
T1 construct: using MOLT-4 cell lysate as the enzyme source of LMP7; endogenous in cells; host or cells: MOLT-4 (human acute lymphoblastic leukemia cells)
Briefly: Cytological inhibitory activity on LMP7 in MOLT-4 cells. It counts as cell-based. The following applies: incubation for 2 hours with compound, read-out: Cytological activity data LMP7 Activity (MOLT-4Cell). As for the experimental part:
MOLT-4 are human acute lymphoblastic leukemia cells and have been identified as cells with high expression of LMP7. In this experiment, the compounds were pre-incubated with MOLT-4, and Ac-ANW-AMC (BonstonBiochem, Cat #S-320) was used as the substrate of LMP7 to establish the detection method for the enzymatic activity of LMP7 in cells and detect the compound inhibitory activity (half inhibitory concentration, IC50).
Cells were plated in a 24-well plate (Corning) at a concentration of 1.5×10^5/ml per well. The next day compounds were prepared and diluted in a 5-fold gradient from 2 mM in 100% DMSO for a total of 8 concentrations. 2 μl for each concentration of the compound was added to a 1-ml cell culture medium, supplemented with 1 ml of RPMI-1640 only (final FBS concentration 5%, v/v). The compounds were mixed with the cells. After incubation for 2 hours in the incubator, the cells were centrifuged at 2000 rpm for 8 minutes to discard the supernatant. The cells were washed once with 2 ml PBS (Solarbio), and centrifuged again to discard the supernatant. The cells were resuspended in 100 μl of lysis buffer (20 mM Tris, pH 8.0, 5 mM EDTA, plus Protease inhibitor (1: 100) and Phosphatase Inhibitor (1:100) when used) and left in a 4° C. refrigerator for 45 minutes.
After 2 min. of centrifuge at 2000 rpm, the lysate was transferred from the 24-well plate to a 96-well plate, and centrifuged at 2000 rpm, 4° C., for 15 min. The supernatant was the lysate. Protein quantification was performed using the BCA method (Thermo, #23225). A 2* lysate was prepared with the reaction buffer (20 mM Tris, pH 8.0, 0.5 mM EDTA) at a final concentration of 20 ng/μl. 2* Ac-ANW-AMC was prepared with the reaction buffer at a final concentration of 100 μM. 10 µl of 2* lysate was added to a 384-well plate (OptiPlate-384, purchased from PerkinElmer), and added with 10 W of 2* Ac-ANW-AMC. The reaction was started by centrifugation at 23° C. in the dark for 1 hour. After completion of the reaction, the signal value (excitation wavelength 345 nm/emission wavelength 445 nm) was read on the CLARIO starPlus (purchased from BMG LRBTECH). Enzyme activity was determined at 8 concentrations for each compound, and data were processed using the GraphPad Prism software to calculate the half inhibitory concentration of the compound on LMP7 hydrolase in MOLT-4 cells, i.e. the IC50 value.

Assay [2] has as its target T1, LMP7. In words: Enzymatic inhibitory activity on LMP7 (MOLT-4 cell lysate, Ac-ANW-AMC substrate). It counts as biochemical. The following applies: 1 hour pre-incubation. From the text:
LMP7 is a catalytic subunit of immunoproteasomes. In this experiment, an enzymatic detection platform was established using its hydrolytic enzyme activity and used for compound activity detection. Using Ac-ANW-AMC (Bonston Biochem, Cat #S-320) as a substrate for LMP7, the amount of fluorescent group AMC (7-amino-4-methylcoumarin) released after hydrolysis can reflect the enzymatic activity. MOLT-4 cells are human acute lymphoblastic leukemia cells and have been identified as cells with high expression of LMP7. We established an enzymatic detection method for compound inhibition on LMP7 using MOLT-4 cell lysate as the enzyme source of LMP7 and detected the compound inhibitory activity (half inhibitory concentration, IC50).
(§1) MOLT-4 cells were cultured in a 75 cm^2 cell culture flask (Corning) (37° C., 95% air, and 5% CO2) with RPMI-1640 (Biological Industries) medium containing 10% fetal bovine serum (Biological Industries) and 1% Pen Strep (Gibco) and passaged 2-3 times one week. 1×10^7 MOLT-4 cells were collected, resuspended in 1 ml of PBS (Solarbio), and centrifuged at 3000 rpm for 5 minutes. The supernatant was aspirated off. The cells were resuspended in 500 μl of lysis buffer (20 mM Tris, pH 8.0, 5 mM EDTA, plus Protease inhibitor (1:1000) and Phosphatase Inhibitor (1:100) when used) and left on ice for 30 minutes. The cells were broken by supersonic technique, 0.5 S on, 0.5 S off, for 2.5 S. The centrifuge was performed at 12000 rpm, 4° C. for 10 minutes. The supernatant was the cell lysate and protein quantification was performed by using the BCA method (Thermo, #23225).
Compounds were diluted in a 5-fold gradient with 100% DMSO for a total of 9 concentrations: 2 W for each concentration was added to a 48-μl reaction buffer (20 mM Tris, pH 8.0, 0.5 mM EDTA) and mixed well as 4* compound (final concentrations: 2000, 400, 80, 16, 3.2, 0.64, 0.128, 0.0256, and 0 nM) for later use. A reaction buffer was used to prepare 4* MOLT-4 cell lysate at a final concentration of 20 ng/μl and 2*Ac-ANW-AMC at a final concentration of 100 µM. 5 μl of 4* compound was added to a 384-well plate (OptiPlate-384, purchased from PerkinElmer), added with 5 W of 4* cell lysate, centrifuged, and reacted in an incubator at 23° C. for 1 hour. 10 W of 2* Ac-ANW-AMC was added and the reaction was started by centrifugation at 23° C. in the dark for 2 hours. After completion of the reaction, the signal value (excitation wavelength 345 nm/emission wavelength 445 nm) was read on the CLARIO star^Plus (purchased from BMG LRBTECH). Enzyme activity was determined at 9 concentrations for each compound, and data were processed using the GraphPad Prism software to calculate the half inhibitory concentration of the compound on LMP7, i.e. the IC50 value.

For assay [3], the target named is T2, β5 (Homo sapiens, UniProt P28074).
T2 construct: using HEK-293 cell lysate as the enzyme source of D5; endogenous in cells; host or cells: HEK-293 (human embryonic kidney cells)
Briefly: Enzymatic inhibitory activity on β5 (HEK-293 cell lysate, Ac-WLA-AMC substrate). The format is biochemical. To be noted: 1 hour pre-incubation.
Source text: β5 is a catalytic subunit of immunoproteasomes. In this experiment, an enzymatic detection platform was established using its hydrolytic enzyme activity and used for compound activity detection. Using Ac-WLA-AMC (Bonston Biochem, Cat #5-330) as a substrate for D5, the amount of fluorescent group AMC (7-amino-4-methylcoumarin) released after hydrolysis can reflect the enzymatic activity. […] We established an enzymatic detection method for compound inhibition on D5 using HEK-293 cell lysate as the enzyme source of D5 and detected the compound inhibitory activity (half inhibitory concentration, IC50). The enzymatic inhibitory activity of compounds against D5 was used as a measure index of compound selectivity.
as §1, with “HEK-293” for “MOLT-4”, “DMEM” for “RPMI-1640”, “performed” for “performed by”
Compounds were diluted in a 5-fold gradient with 100% DMSO for a total of 9 concentrations. 2 W for each concentration was added to a 48-μl reaction buffer (20 mM Tris, pH 8.0, 0.5 mM EDTA) and mixed well as 4* compound (final concentrations: 100000, 20000, 4000, 800, 160, 32, 6.4, 1.28, and 0 nM) for later use. A reaction buffer was used to prepare 4*HEK-293 cell lysate at a final concentration of 25 ng/μl and 2*Ac-WLA-AMC at a final concentration of 20 μM. 5 W of 4* compound was added to a 384-well plate (OptiPlate-384, purchased from PerkinElmer), added with 5 W of 4*HEK-293 cell lysate, centrifuged, and reacted in an incubator at 23° C. for 1 hour. 10 W of 2* Ac-WLA-AMC was added and the reaction was started by centrifugation at 23° C. in the dark for 2 hours. After completion of the reaction, the signal value (excitation wavelength 345 nm/emission wavelength 445 nm) was read on the CLARIO star^Plus (purchased from BMG LRBTECH). Enzyme activity was determined at 9 concentrations for each compound, and data were processed using the GraphPad Prism software to calculate the half inhibitory concentration of the compound on D5, i.e. the IC50 value.

With `Cc1csc(NC(=O)C(=O)N[C@@H](Cc2coc3ccccc23)B(O)O)n1` [Ex. 31, (R)-(2-(benzofuran-3-yl)-1-(2-oxo-2-((4-methylthiazol-2-yl)amino)acetamido)ethyl)boronic acid], the figures for the IC50 in assay [1], in assay [2] and in assay [3] were 0.011 µM, 0.00291 µM and 0.0725 µM, respectively.
Regarding `COC(=O)C(=O)N[C@@H](Cc1coc2ccccc12)B1O[C@@H]2CC3C[C@@H](C3(C)C)[C@]2(C)O1` [Ex. 61, (R)-(2-(benzofuran-3-yl)-1-(2-oxo-2-methoxyacetamido)ethyl)boronic acid (1S,2S,3R,5S)-(+)-pinane-2,3-diol ester], the IC50 in assay [1] was 0.0466 µM; in assay [2], 0.00427 µM; in assay [3] it was 0.722 µM.
Consider `O=C(Nc1cncnc1)C(=O)N[C@@H](Cc1coc2ccccc12)B(O)O` [Ex. 48, (R)-(2-(benzofuran-3-yl)-1-(2-oxo-2-(pyrimidin-5-ylamino)acetamido)ethyl) boronic acid], for which the results for the IC50 in assay [1], in assay [2] and in assay [3] were 0.0111 µM, 0.00458 µM and 0.0225 µM, respectively.
The corresponding values for `O=C(N[C@@H](Cc1coc2ccccc12)B(O)O)C(=O)N1CC2COCC2C1` (stereo partly drawn) [Ex. 29, (R)-(2-(benzofuran-3-yl)-1-(2-oxo-2-(tetrahydro-1H-furo[3,4-c]pyrrol-5(3H)-yl)acetamido)ethyl)boronic acid] are 0.0159 µM, 0.00781 µM and 0.0414 µM.
The matching figures for `CC1(C)OB([C@H](Cc2coc3ccccc23)NC(=O)C(=O)Nc2cnccn2)OC1(C)C` [Ex. 19, N-((1R)-2-(1-benzofuran-3-yl)-1-(tetramethyl-1,3,2-dioxaborolan-2-yl)ethyl)-N-(pyrazin-2-yl)oxalamide]: 0.00069 µM, 0.00111 µM and 0.0122 µM.
The matching figures for `O=C(N[C@@H](Cc1coc2ccccc12)B(O)O)C(=O)N[C@@H]1C[C@H]2CC[C@@H]1O2` [Ex. 1, ((R)-1-(2-(((1S,2R,4R)-7-oxabicyclo[2.2.1]heptan-2-yl)amino)-2-oxoacetamido)-2-(benzofuran-3-yl)ethyl)boronic acid]: 0.00594 µM, 0.00765 µM and 0.154 µM.
For the molecule `O=C(N[C@@H]1CCOC1)C(=O)N[C@@H](Cc1coc2ccccc12)B(O)O` [Ex. 44, ((R)-2-(benzofuran-3-yl)-1-(2-oxo-2(((R)-tetrahydrofuran-3-yl)amino)acetamido)ethyl) boronic acid], the IC50 in assay [1] is 0.0159 µM; in assay [2] it was 0.00491 µM; in assay [3] it was 0.0542 µM.
The matching figures for `O=C(Nc1cccnc1Cl)C(=O)N[C@@H](Cc1coc2ccccc12)B(O)O` [Ex. 64, (R)-(2-(benzofuran-3-yl)-1-(2-oxo-2-((2-chloropyridin-3-yl)amino)acetamido)ethyl)boronic acid]: 0.00179 µM, 0.00231 µM and 0.0254 µM.
The corresponding values for `CC1COB([C@H](Cc2coc3ccccc23)NC(=O)C(=O)Nc2cnccn2)O1` (stereo partly drawn) [Ex. 68] are 0.0011 µM, 0.00124 µM and 0.0348 µM.
The matching figures for `COC(=O)C(=O)N[C@@H](Cc1coc2ccccc12)B(O)O` [Ex. 62, (R)-(2-(benzofuran-3-yl)-1-(2-oxo-2-methoxyacetamido)ethyl)boronic acid]: 0.0267 µM, 0.00789 µM and 1.3 µM.
For the molecule `C[C@@H]1COB([C@H](Cc2coc3ccccc23)NC(=O)C(=O)Nc2cnccn2)O1` [Ex. 69], the IC50 in assay [1] turned out to be 0.00088 µM; in assay [2], 0.00144 µM; in assay [3], 0.0182 µM.
The corresponding values for `O=C(Nc1ncc(F)s1)C(=O)N[C@@H](Cc1coc2ccccc12)B(O)O` [Ex. 34, (R)-(2-(benzofuran-3-yl)-1-(2-oxo-2-((5-fluorothiazol-2-yl)amino)acetamido)ethyl)boronic acid] are 0.0292 µM, 0.00746 µM and 0.132 µM.
